System: Alternaria solani
Experiment: Activity against early blight of tomato caused by Alternaria solani (protective spray on potted tomato plants)
Format: in vivo
Conditions: tomato leaves, rated after 5 days, untreated control 72% infection
Description: The active compounds, separately or together, were prepared as a stock solution with 0.25% by weight of active compound in acetone or DMSO. 1% by weight of the emulsifier Uniperol® EL (wetting agent having emulsifying and dispersing action based on ethoxylated alkylphenols) was added to this solution, and the solution was diluted with water to the desired concentration.
Use example: Activity against early blight of tomato caused by Alternaria solani
Leaves of potted plants of the cultivar “Groβe Fleischtomate St. Pierre” were sprayed to runoff point with an aqueous suspension having the concentration of active compound stated below. The next day, the leaves were infected with an aqueous spore suspension of Alternaria solani in a 2% strength biomalt solution having a density of 0.17×10^6 spores/ml. The plants were then placed in a water-vapor-saturated chamber at 20–22° C. After 5 days, the early blight on the untreated, but infected control plants had developed to such an extent that the infection could be determined visually in %.
Evaluation is carried out by determining the infected leaf areas in percent. These percentages are converted into efficacies.
The efficacy (E) is calculated as follows using Abbot's formula: E=(1−α/β)·100 • α corresponds to the fungal infection of the treated plants in % and • β corresponds to the fungal infection of the untreated (control) plants in %
An efficacy of 0 means that the infection level of the treated plants corresponds to that of the untreated control plants; an efficacy of 100 means that the treated plants were not infected.
The expected efficacies of the active compound mixtures are determined using Colby's formula [S.R. Colby, Weeds 15, 20–22 (1967)] and compared with the observed efficacies.
Colby's Formula: E=x+y−x·y/100 • E expected efficacy, expressed in percent of the untreated control, when using the mixture of the active compounds A and B at the concentrations a and b • x efficacy, expressed in % of the untreated control, when using active compound A at a concentration of a • y efficacy, expressed in % of the untreated control, when using active compound B at a concentration of b

[1] = 8 ppm active compound in the spray liquid
[2] = 16 ppm active compound in the spray liquid
[3] = 31 ppm active compound in the spray liquid
[4] = 63 ppm active compound in the spray liquid

N#Cc1sc2c(=O)c3ccccc3c(=O)c=2sc1C#N [I, dithianon]
Efficacy in % of the untreated control [1]: 44% | Efficacy in % of the untreated control [2]: 65% | Efficacy in % of the untreated control [3]: 79% | Efficacy in % of the untreated control [4]: 86%

Cc1cc(C)nc(Nc2ccccc2)n1 [II-1, pyrimethanil]
Efficacy in % of the untreated control [1]: 0% | Efficacy in % of the untreated control [2]: 0% | Efficacy in % of the untreated control [3]: 0% | Efficacy in % of the untreated control [4]: 0%

Cc1cc(C2CC2)nc(Nc2ccccc2)n1 [II-2, cyprodinil]
Efficacy in % of the untreated control [1]: 44% | Efficacy in % of the untreated control [2]: 72% | Efficacy in % of the untreated control [4]: 86%
